# What was measured:
# A549/TR [1] = assay: Synergistic antiproliferative activity against human A549/Taxol cells assessed as combination index at 20 uM in presence of 0.1 uM paclitaxel by Chou-Talalay method; format: functional
# A549/TR [2] = assay: Inhibition of cell migration in human A549/Taxol cells assessed as wound closure at 5 uM measured after 24 hrs by scratch-wound healing assay relative to control; format: functional; design: scale not given: the % may be the effect or the level left
# A549/TR [3] = assay: Synergistic antiproliferative activity against human A549/Taxol cells assessed as combination index at 2.5 uM in presence of 0.5 uM paclitaxel by Chou-Talalay method; format: functional
# A549/TR [4] = assay: Synergistic antiproliferative activity against human A549/Taxol cells assessed as combination index at 20 uM in presence of 0.025 uM paclitaxel by Chou-Talalay method; format: functional
# A549/TR [5] = assay: Inhibition of cell invasion in human A549/Taxol cells assessed as invasive cells at 2.5 uM incubated for 24 hrs by transwell invasion assay relative to control; format: functional; design: scale not given: the % may be the effect or the level left
# A549/TR [6] = assay: Synergistic antiproliferative activity against human A549/Taxol cells assessed as combination index at 5 uM in presence of 0.5 uM paclitaxel by Chou-Talalay method; format: functional
# A549/TR [7] = assay: Synergistic antiproliferative activity against human A549/Taxol cells assessed as combination index at 2.5 uM in presence of 0.025 uM paclitaxel by Chou-Talalay method; format: functional
# A549/TR [8] = assay: Synergistic antiproliferative activity against human A549/Taxol cells assessed as combination index at 10 uM in presence of 0.1uM paclitaxel by Chou-Talalay method; format: functional
# [9] = MRT (0 to infinity) in male Sprague-Dawley rat at 2 mg/kg, iv measured up to 24 hrs by LC-MS/MS analysis; format: ADME, organism-based; settings: in vivo
# A549/TR [10] = assay: Inhibition of cell invasion in human A549/Taxol cells assessed as reduction in cell migration incubated for 24 hrs by transwell invasion assay relative to control; format: functional, cell-based; settings: dose 2.5-10 µM
# [11] = MRT (0 to infinity) in male Sprague-Dawley rat at 10 mg/kg, po measured up to 24 hrs by LC-MS/MS analysis; format: ADME, organism-based; settings: in vivo
# A549/TR [12] = assay: Synergistic antiproliferative activity against human A549/Taxol cells assessed as combination index at 10 uM in presence of 0.025 uM paclitaxel by Chou-Talalay method; format: functional
# A549/TR [13] = assay: Synergistic antiproliferative activity against human A549/Taxol cells assessed as combination index at 20 uM in presence of 0.05 uM paclitaxel by Chou-Talalay method; format: functional
# A549/TR [14] = assay: Inhibition of cell migration in human A549/Taxol cells assessed as suppression of wound closure measured after 24 hrs by scratch-wound healing assay; format: functional, cell-based; settings: dose 2.5-5 µM
# A549/TR [15] = assay: Synergistic antiproliferative activity against human A549/Taxol cells assessed as combination index at 2.5 uM in presence of 0.1 uM paclitaxel by Chou-Talalay method; format: functional
# A549/TR [16] = assay: Synergistic antiproliferative activity against human A549/Taxol cells assessed as combination index at 5 uM in presence of 0.025 uM paclitaxel by Chou-Talalay method; format: functional
# [17] = Tmax in male Sprague-Dawley rat at 2 mg/kg, iv measured up to 24 hrs by LC-MS/MS analysis; format: ADME, organism-based; settings: in vivo
# [18] = Apparent volume of distribution in male Sprague-Dawley rat at 2 mg/kg, iv measured up to 24 hrs by LC-MS/MS analysis; format: ADME, organism-based; settings: in vivo, read-out: Vz
# A549/TR [19] = assay: Synergistic antiproliferative activity against human A549/Taxol cells assessed as combination index at 5 uM in presence of 0.05 uM paclitaxel by Chou-Talalay method; format: functional
# [20] = AUC (0 to infinity) in male Sprague-Dawley rat at 10 mg/kg, po measured up to 24 hrs by LC-MS/MS analysis; format: ADME, organism-based; settings: in vivo
# [21] = Oral bioavailability in male Sprague-Dawley rat at 10 mg/kg measured up to 24 hrs by LC-MS/MS analysis; format: ADME, organism-based; settings: in vivo
# [22] = Tmax in male Sprague-Dawley rat at 10 mg/kg, po measured up to 24 hrs by LC-MS/MS analysis; format: ADME, organism-based; settings: in vivo
# [23] = Cmax in male Sprague-Dawley rat at 2 mg/kg, iv measured up to 24 hrs by LC-MS/MS analysis; format: ADME, organism-based; settings: in vivo
# [24] = Half life in male Sprague-Dawley rat at 10 mg/kg, po measured up to 24 hrs by LC-MS/MS analysis; format: ADME, organism-based; settings: in vivo
# [25] = AUC (0 to infinity) in male Sprague-Dawley rat at 2 mg/kg, iv measured up to 24 hrs by LC-MS/MS analysis; format: ADME, organism-based; settings: in vivo
# A549/TR [26] = assay: Synergistic antiproliferative activity against human A549/Taxol cells assessed as combination index at 2.5 uM in presence of 0.05 uM paclitaxel by Chou-Talalay method; format: functional
structure (smiles),measurement,setting,value
O=C(Nc1cc(Cl)cc(Cl)c1)c1nc(-c2cccc(Cl)c2)cs1,CI,A549/TR [1],0.63
same,Activity,A549/TR [2],3%
same,CI,A549/TR [3],0.24
same,CI,A549/TR [4],0.63
same,Activity,A549/TR [5],35.7%
same,CI,A549/TR [6],0.48
same,CI,A549/TR [7],0.75
same,CI,A549/TR [8],0.47
same,MRT inf,[9],0.73 h
same,inhibition,A549/TR [10],Dose-dependent-effect
same,MRT inf,[11],2.42 h
same,CI,A549/TR [12],0.86
same,CI,A549/TR [13],0.38
same,inhibition,A549/TR [14],Dose-dependent-effect
same,CI,A549/TR [15],0.09
same,CI,A549/TR [16],0.71
same,Tmax,[17],4.8 min
same,Vd,[18],4.77 L/kg
same,CI,A549/TR [19],0.16
same,AUC(0-inf),[20],239 ng·h/mL
same,bioavailability,[21],2.08%
same,Tmax,[22],1 h
same,Cmax,[23],4750 ng/mL
same,half-life,[24],1.12 h
same,AUC(0-inf),[25],2300 ng·h/mL
same,CI,A549/TR [26],0.08

# From ChEMBL document CHEMBL6182948 (J Med Chem, 2025)
